Assay results as given in ChEMBL document CHEMBL5058564, “EUbOPEN Chemogenomics Library 2 (Incucyte)” (2022).

Experiments:
Format in all cases: toxicity, cell-based
HEK-293T = experiment: Incucyte cell viability with HEK293T; conditions: human, 10 µM, compound concentration 10 uM
U2OS = experiment: Incucyte cell viability with U2OS; conditions: human, 10 µM, compound concentration 10 uM
Fibroblast = experiment: Incucyte cell viability with human fibroblast; conditions: 10 µM, compound concentration 10 uM
[1] = 0 h, replicate number 1, timepoint 0 hours
[2] = 0 h, replicate number 2, timepoint 0 hours
[3] = 12 h, replicate number 1, timepoint 12 hours
[4] = 18 h, replicate number 1, timepoint 18 hours
[5] = 24 h, replicate number 1, timepoint 24 hours
[6] = 6 h, replicate number 2, timepoint 6 hours
[7] = 12 h, replicate number 2, timepoint 12 hours
[8] = 18 h, replicate number 2, timepoint 18 hours
[9] = 24 h, replicate number 2, timepoint 24 hours
[10] = 6 h, replicate number 1, timepoint 6 hours
Also: unitless GR value; below 1 slowed growth and below 0 cell loss.

Structure (SMILES) | Growth Rate (HEK-293T; [1]) | Growth Rate (HEK-293T; [2]) | Growth Rate (HEK-293T; [3]) | Growth Rate (HEK-293T; [4]) | Growth Rate (HEK-293T; [5]) | Growth Rate (U2OS; [1]) | Growth Rate (U2OS; [2]) | Growth Rate (U2OS; [4]) | Growth Rate (Fibroblast; [1]) | Growth Rate (Fibroblast; [9]) | Growth Rate (HEK-293T; [10]) | Growth Rate (HEK-293T; [6]) | Growth Rate (HEK-293T; [7]) | Growth Rate (U2OS; [10]) | Growth Rate (Fibroblast; [2]) | Growth Rate (Fibroblast; [4]) | Growth Rate (Fibroblast; [5]) | Growth Rate (U2OS; [5]) | Growth Rate (Fibroblast; [3]) | Growth Rate (Fibroblast; [10]) | further results
Cc1nc[nH]c1CCN.Cl | 0.42 | 0.64 | 0.91 | 0.92 | 0.81 | -0.24 | -1 | 0.91 | 0.7 | 0.86 |  |  |  |  |  |  |  |  |  |  | Growth Rate (Fibroblast; [6]): 0.14; Growth Rate (Fibroblast; [7]): 0.83; Growth Rate (Fibroblast; [8]): 0.58
CC(C)(C)c1ccc(S(=O)(=O)Nc2ccc(Cl)cc2C(=O)c2cc[n+]([O-])cc2)cc1 [VERCIRNON] |  |  |  |  |  |  | -1 | 0.78 | 0.29 |  | 0.87 | 0.35 | 0.73 | 0.94 | 0.25 | 1 | 0.69 |  |  |  | Growth Rate (HEK-293T; [8]): 0.91
O=C(O)CCCCCC[C@H]1C(=O)NC(=O)N1CCC(O)C1CCCCC1 (stereo partly drawn) |  | 0.31 | 0.73 | 0.88 | 0.91 | -0.44 |  | 0.81 | 0.25 |  | 0.84 | 0.93 | 0.68 | 0.65 | 0.26 |  |  |  |  |  | Growth Rate (HEK-293T; [8]): 0.81; Growth Rate (Fibroblast; [7]): 0.91
CCOC(=O)c1c(/C(C#N)=C\N)c2ccc(Cl)c(Cl)c2n1C | 0.5 | 0.59 |  | 0.9 | 0.99 | -0.21 |  | 0.5 | 0.69 | 0.73 | 0.56 | 0.47 | 0.77 | 0.29 |  | 0.47 | 0.29 | 0.73 | 0.64 |  | Growth Rate (HEK-293T; [8]): 0.7; Growth Rate (HEK-293T; [9]): 0.93; Growth Rate (U2OS; [3]): 0.64; Growth Rate (Fibroblast; [7]): 0.53; Growth Rate (Fibroblast; [8]): 0.72
COC1(C[S@@+]([O-])c2ccccc2)CCN(CCc2c[nH]c3ccc(F)cc23)CC1 | 0.79 |  |  | 0.91 | 0.8 | 0.42 | -1 |  |  | 0.79 |  | 0.72 | 0.77 | -0.09 |  | 0.49 | 0.53 |  | 0.32 | 0.42 | Growth Rate (Fibroblast; [6]): -0.24; Growth Rate (Fibroblast; [7]): 0.15; Growth Rate (Fibroblast; [8]): 0.53
CCC(=O)NCC[C@@H]1CCc2ccc3c(c21)CCO3 [RAMELTEON] | 0.12 | -0.36 |  |  | 0.86 | -0.01 |  | 0.88 | 0.51 | 0.89 | 0.99 |  |  | 0.45 | 0.17 | 0.96 | 0.77 | 0.82 | 0.96 | 0.76 | Growth Rate (U2OS; [3]): 0.54; Growth Rate (Fibroblast; [6]): 0.51; Growth Rate (Fibroblast; [7]): 0.73; Growth Rate (Fibroblast; [8]): 0.83
CC(C)c1cc(-c2ccc(F)c3ccccc23)nc(N)n1 | 0.46 | 0.76 |  |  |  |  | -0.96 | 0.86 | -0.03 |  |  | 0.72 |  | 0.62 |  | 0.4 | 0.62 | 0.73 | 0.58 | 0.51 | Growth Rate (U2OS; [6]): 0.83; Growth Rate (U2OS; [3]): 0.81; Growth Rate (U2OS; [8]): 0.79; Growth Rate (U2OS; [9]): 0.89
CC(=O)NCCc1c(Cc2ccccc2)[nH]c2ccccc12 [LUZINDOLE] |  |  | 0.96 |  |  | 0.42 |  |  |  |  |  | 0.58 |  | 0.72 | 0.86 |  |  |  | 0.94 | 0.87 | Growth Rate (U2OS; [6]): 0.96; Growth Rate (U2OS; [7]): 0.87; Growth Rate (U2OS; [8]): 0.76; Growth Rate (U2OS; [9]): 0.88
OC[C@H]1O[C@@H](n2cnc3c(NC4CCCC4)ncnc32)[C@H](O)[C@@H]1O [N6-CYCLOPENTYLADENOSINE] | -0.12 | -0.14 | 0.81 | 0.75 | 0.73 |  |  | 0.53 | 0.37 | 0.92 | 0.92 | 0.12 | 0.6 | 0.36 | -0.09 |  |  | 0.71 |  |  | Growth Rate (HEK-293T; [8]): 0.65; Growth Rate (HEK-293T; [9]): 0.66; Growth Rate (U2OS; [6]): 0.74; Growth Rate (U2OS; [3]): 0.69; Growth Rate (U2OS; [7]): 0.94; Growth Rate (U2OS; [8]): 0.93; Growth Rate (U2OS; [9]): 1
CN(c1ncccc1CNc1ccnc(-c2nc3c(F)c(Cl)ccc3[nH]2)n1)S(C)(=O)=O | -0.02 | 0.48 | 0.97 | 0.93 |  | -0.62 | -0.69 | 0.62 |  | 0.92 | 0.84 |  | 0.72 | 0.1 | 0.75 | 0.27 | 0.36 | 0.78 | 0.38 | -0.47 | Growth Rate (HEK-293T; [8]): 0.99; Growth Rate (HEK-293T; [9]): 0.81; Growth Rate (U2OS; [6]): 0.61; Growth Rate (U2OS; [3]): 0.15; Growth Rate (U2OS; [7]): 0.66; Growth Rate (U2OS; [8]): 0.87; Growth Rate (U2OS; [9]): 0.72
O=C(NCC(=O)N1CC[C@H](N[C@H]2CC[C@@](O)(c3ccc(-c4ncccn4)cn3)CC2)C1)c1cccc(C(F)(F)F)c1 [PF-4136309] |  | 0.66 | 0.73 |  | 0.99 | 0.62 |  | 1 |  |  | 1 | 0.86 |  |  | 0.71 | 0.3 | 0.41 | 0.7 | 0.15 | 0.01 | Growth Rate (U2OS; [6]): 0.3; Growth Rate (U2OS; [7]): 0.53; Growth Rate (U2OS; [8]): 0.8; Growth Rate (U2OS; [9]): 0.9
